In US20070141158A1, “Amphiphilic heparin derivative formed by coupling a heparin with a bile acid” (ETHYPHARM, priority 2003, published 2007):

Assay: Incorporation (solubilization) of hydrophobic active ingredients into aqueous solution of heparin hydrophobized with cholic acid (HEP19CHO), dissolution method
Assay type: physicochemical
Conditions: for increase of quantity in solution: HEP19CHO (Cp=8.6 mg/ml) after 6 days of incorporation, versus water (FIG. 4)
Protocol: An example of a method of incorporation by direct dissolution is described below. 30 mg of hydrophobized heparin are introduced into a tube and 3 ml of distilled water are added thereto. After dissolution, a large excess of active ingredient (15 to 30 mg) is introduced into the mixture.
A phase of stirring the mixture obtained is carried out by means of a magnetic stirrer bar for several days. The mixture is then centrifuged and the supernatant is passed through a 0.45 μm filter. The quantity of active ingredient solubilized in the solutions of hydrophobized heparin may be determined by UV/visible spectroscopy or by HPLC.
The nonsolubilized active ingredient is removed after filtration of the solutions on a membrane having a porosity of 0.45 μm. The quantity of active ingredient in solution is then determined. Having determined the quantities solubilized in water and those dissolved in the hydrophobic domains, it is then possible to calculate a partition coefficient hydrophobic domains/water which is called Log P′ by analogy with Log P.
Indeed, the relative solubility of molecules between an oily phase and an aqueous phase is described by the partition coefficient P which represents the distribution of the molecules between two solvents, generally water and octanol. The use of its logarithm, log P, is often preferred. […] Likewise for Log P′ which expresses the ratio of the solubilities of the active agent in water and in the solution of hydrophobized heparin.
The incorporation of active ingredients was essentially carried out by the dissolution method. In this method, the compound to be incorporated is placed in solid form in a tube containing water or a colloidal solution of hydrophobized heparin, at the concentration Cp (mg/ml).
The mixing is performed with stirring at room temperature for various times. The compound to be incorporated remains at saturating concentration in the medium. At the end of the incorporation period, the tubes are subjected to a centrifugation step and the supernatants are filtered on 0.45 μm filters and assayed. Control solutions (water or nonhydrophobized heparin) are treated in the same manner.
The quantity of active ingredient incorporated into the various media is quantified by HPLC and/or by measuring the UV absorbance.
Thus, the incorporation is expressed in milligram of active ingredient per gram of polymer (mg/g P) or in micromole of active ingredient per gram of polymer (μmol/g P). This incorporation level is calculated by taking the ratio between the concentration of the active ingredient in solution and the concentration of the polymer. […] The difference in concentration of active ingredients in water and in a solution of hydrophobized heparin represents the quantity of active ingredient effectively present in hydrophobic micro-domains formed by the grouping together of cholic acid residues.

increase of quantity in solution	times as soluble in a solution of hydrophobized heparin as in water (HEP19CHO solution versus water)	level of incorporation into the hydrophobic domains (HEP19CHO 8 mg/ml, after 3 days)	gain in solubility relative to water (HEP19CHO calcium salt, 8 mg/ml, after 3 days (FIG. 3))	concentration of carbamazepine present in the hydrophobic domains (HEP19CHO solution 8 mg/ml, after 3 days, HEP19CHO solution minus aqueous phase)	Compound	affinity for the hydrophobic domains (among the molecules tested) (HEP19CHO, Table 5 molecules)
> 2000 fold	more than 2000 times				CCC(C)n1ncn(-c2ccc(N3CCN(c4ccc(OCC5COC(Cn6cncn6)(c6ccc(Cl)cc6Cl)O5)cc4)CC3)cc2)c1=O (stereo not shown) [Itraconazole]	
increased ten fold		70 mg/g P	exceeds 500%	560 µg/mL	NC(=O)N1c2ccccc2C=Cc2ccccc21 [Carbamazepine]	highest affinity for the hydrophobic domains
